Two compounds from patent US20250338850A1, “COMPOSITION AND METHOD FOR CONTROLLING WEEDS IN TURFGRASS” (SYNGENTA CROP PROTECTION AG, priority 2022, published 2025) can be followed below.

One series has as its system kikuyugrass. The series can be described thus: Turfgrass injury trial on kikuyugrass. Type of series: in vivo. From the text: In a kikuyugrass trial, trifloxysulfuron (TSS) (Monument 75 WDG) was applied solo at 28 g ai/ha and compared to a mixture of TSS and metcamifen (MET). The TSS-MET mixture contains trifloxysulfuron and meticamifen at a ratio of 20 to 75 g. Both Monument and the TSS-MET mixture were applied at 28 g ai/ha TSS.

The test system of series [1] is St Augustinegrass variety 'Classic'. The series can be described thus: Turfgrass injury trial on St Augustinegrass variety 'Classic'. The format is in vivo. From the text: In a trial conducted on St Augustinegrass variety ‘Classic’, trifloxysulfuron (TSS) (Monument 75 WDG) was applied at 28 g ai/ha with and without metcamifen applied at 30, 75 and 150 g ai/ha. Two applications were applied on a 30-day interval (initial treatment and second treatment).

Take `CNC(=O)Nc1ccc(S(=O)(=O)NC(=O)c2ccccc2OC)cc1` [Metcamifen, 2-Methoxy-N-[[4-[[(methylamino)carbonyl]amino]phenyl]sulfonyl]benzamide]: the trifloxysulfuron safening result was “almost complete trifloxysulfuron safening” in the series on kikuyugrass (TSS-MET mixture at 28 g ai/ha TSS); “almost complete trifloxysulfuron safening” in series [1] (metcamifen 30, 75 and 150 g ai/ha with TSS 28 g ai/ha). The “injury at all rating dates” value in series [1] (TSS 28 g ai/ha with metcamifen at 30, 75 and 150 g ai/ha, all rating dates) was “Less than 5%”.

As to `COc1cc(OC)nc(NC(=O)NS(=O)(=O)c2ncccc2OCC(F)(F)F)n1` [TSS (Monument), N-[[(4,6-dimethoxy-2-pyrimidinyl)amino]carbonyl]-3-(2,2,2-trifluoroethoxy)-2-pyridinesulfonamide], the “injury, 7DAA-2” value in the series with kikuyugrass (28 g ai/ha TSS, 7 days after application 2) is 40a %. Further, the “injury, 14DAA-1” value in the series on kikuyugrass (28 g ai/ha TSS, 14 days after application 1) is reported as 22.5a %. The “injury, 14 DAA-2” value with kikuyugrass (28 g ai/ha TSS, 14 days after application 2) is reported as 40a %. Also, in the series with kikuyugrass (28 g ai/ha TSS, 21 days after application 1), the “injury, 21 DAA-1” value came out at 37.4a %. Also, the “injury, 21 DAA-2” value with kikuyugrass (28 g ai/ha TSS, 21 days after application 2) is recorded as 40a %. Also, the “injury, 28 DAA-1” value in the series with kikuyugrass (28 g ai/ha TSS, 28 days after application 1) is given as 34.9a %. For the same compound, the “injury, 28 DAA-2” value in the series on kikuyugrass (28 g ai/ha TSS, 28 days after application 2) is 32.5a %. The “injury” value in the series with kikuyugrass (trifloxysulfuron solo 28 g ai/ha, two applications on a 28-day interval) is listed as 40%. The “injury, 9 DAIT (Initial Treatment)” value in series [1] (TSS 28 g ai/ha, 9 days after the initial application) is listed as 71%. Besides, in series [1] (TSS 28 g ai/ha, 17 days after the initial application), the “injury, 17 DAIT” value came out at 85%. Besides, the “injury, 24 DAIT” value in series [1] (TSS 28 g ai/ha, 24 days after the initial application) amounted to 98%. In addition, the “injury, 30 DAIT (Second Treatment)” value in series [1] (TSS 28 g ai/ha, 30 days after the initial application) came to 85%. The “injury, 41 DAIT” value in series [1] (TSS 28 g ai/ha, two applications, 30-day interval, 41 days after the initial application) is given as 80%. Further, in series [1] (TSS 28 g ai/ha, two applications, 30-day interval, 51 days after the initial application), the “injury, 51 DAIT” value was 81%.
